Literature values in publication PMC4894406, “Results of an abbreviated phase-II study with the Akt Inhibitor MK-2206 in Patients with Advanced Biliary Cancer” (Scientific Reports, 2015).

Tested on: cholangiocarcinoma cell lines
Settings: pre-clinical data; cited from earlier work

| Structure (SMILES) | effect on CXCL12-induced cholangiocarcinoma cell invasion |
| --- | --- |
| O=c1cc(N2CCOCC2)oc2c(-c3ccccc3)cccc12 [LY294002] | attenuated |
| N#CC(=C(/N)Sc1ccccc1N)/C(C#N)=C(/N)Sc1ccccc1N [UO126] | attenuated |
